System: desired test plant species
Assay: Foliar-applied postemergence herbicidal activity in direct seeded rice (Table 6)
Assay type: in vivo
Settings: 21 DAA
Description: Seeds or nutlets of the desired test plant species were planted in a soil matrix prepared by mixing a loam soil (43 percent silt, 19 percent clay, and 38 percent sand, with a pH of about 8.1 and an organic matter content of about 1.5 percent) and river sand in an 80 to 20 ratio. The soil matrix was contained in plastic pots with a surface area of 139.7 cm^2. When required to ensure good germination and healthy plants, a fungicide treatment and/or other chemical or physical treatment was applied. The plants were grown for 10-17 d in a greenhouse with an approximate 14-h photoperiod which was maintained at about 29° C. during the day and 26° C. during the night. Nutrients and water were added on a regular basis and supplemental lighting was provided with overhead metal halide 1000-Watt lamps as necessary. The plants were employed for testing when they reached the second or third true leaf stage. Treatments consisted of compounds 45, 34, and 66. Weighed amounts of technical compounds were placed in individual 25 mL glass vials and dissolved in 8 mL of 97:3 v/v acetone-DMSO to obtain stock solutions. […] The spray application solutions were prepared by removing 4 mL of the stock solution and diluting with 4 mL of 97:3 v/v acetone-DMSO and continued serial dilution to obtain 1⁄2×, 1⁄4×, 1⁄8×, and 1/16× rates of the high rate. Spray solutions were diluted to the appropriate final concentrations with the addition of 8 mL of an aqueous mixture of 1.875% (v/v) Agri-dex crop oil concentrate. The final 12-mL spray solutions each contained 1.25% (v/v) Agri-dex crop oil concentrate, 32.3% acetone, and 1.0% DMSO. Compound requirements are based upon a 12 mL application volume at a rate of 187 L/ha. Spray solutions were applied to the plant material with an overhead Mandel track sprayer equipped with […] nozzles calibrated to deliver 187 L/ha over an application area of 0.503 square meters (m^2) at a spray height of 18 inches ([…]) above average plant canopy height. Control plants were sprayed in the same manner with the solvent blank. The treated plants and control plants were placed in a greenhouse as described above and watered by sub-irrigation to prevent wash-off of the test compounds. After approximately 3 weeks, the condition of the test plants, compared with that of the untreated plants, was determined visually and scored on a scale of 0 to 100 percent where 0 corresponds to no injury and 100 corresponds to complete kill. By applying the well-accepted probit analysis as described by J. Berkson in Journal of the […], 48, 565 (1953) and by D. Finney in “Probit Analysis” Cambridge University Press (1952) or by plotting the mean data and fitting a logarithmic curve to the portion of the data where there was a dose response using Microsoft Excel®, the above data can be used to calculate GR50 and GR90 values, which are defined as growth reduction factors that correspond to the effective dose of herbicide required to kill or control 50 percent or 90 percent, respectively, of a target plant.

## COc1c(C(=O)O)nc(-c2ccc(Cl)c(OC)c2F)c(F)c1N [Compound 45, 4-amino-6-(4-chloro-2-fluoro-3-methoxyphenyl)-5-fluoro-3-methoxypicolinic acid]
ECHCO (Echinochloa colonum, junglerice), 4.38 g ae/ha
  Mean Visual Injury (%)-21 Days After Application ECHCO: 80%
ECHCO (Echinochloa colonum, junglerice), 8.75 g ae/ha
  Mean Visual Injury (%)-21 Days After Application ECHCO: 88%
ECHCO (Echinochloa colonum, junglerice), 17.5 g ae/ha
  Mean Visual Injury (%)-21 Days After Application ECHCO: 95%
ECHCO (Echinochloa colonum, junglerice), 35 g ae/ha
  Mean Visual Injury (%)-21 Days After Application ECHCO: 98%
ECHCO (Echinochloa colonum, junglerice), 70 g ae/ha
  Mean Visual Injury (%)-21 Days After Application ECHCO: 100%
ECHCO (Echinochloa colonum, junglerice), dose to kill or control 50 percent
  GR50 ECHCO: <4.38 g ae/ha
ECHCO (Echinochloa colonum, junglerice), dose to kill or control 90 percent
  GR90 ECHCO: 12.9 g ae/ha
LEFCH (Leptochloa chinensis, Chinese sprangletop), 4.38 g ae/ha
  Mean Visual Injury (%)-21 Days After Application LEFCH: 3%
LEFCH (Leptochloa chinensis, Chinese sprangletop), 8.75 g ae/ha
  Mean Visual Injury (%)-21 Days After Application LEFCH: 0%
LEFCH (Leptochloa chinensis, Chinese sprangletop), 17.5 g ae/ha
  Mean Visual Injury (%)-21 Days After Application LEFCH: 20%
LEFCH (Leptochloa chinensis, Chinese sprangletop), 35 g ae/ha
  Mean Visual Injury (%)-21 Days After Application LEFCH: 42%
LEFCH (Leptochloa chinensis, Chinese sprangletop), 70 g ae/ha
  Mean Visual Injury (%)-21 Days After Application LEFCH: 60%
LEFCH (Leptochloa chinensis, Chinese sprangletop), dose to kill or control 50 percent
  GR50 LEFCH: 53.5 g ae/ha
LEFCH (Leptochloa chinensis, Chinese sprangletop), dose to kill or control 90 percent
  GR90 LEFCH: >70 g ae/ha
ORYSA (Oryza sativa ‘Clearfield 171’, rice), 4.38 g ae/ha
  Mean Visual Injury (%)-21 Days After Application ORYSA ‘Clearfield 171’: 0%
ORYSA (Oryza sativa ‘Clearfield 171’, rice), 8.75 g ae/ha
  Mean Visual Injury (%)-21 Days After Application ORYSA ‘Clearfield 171’: 12%
ORYSA (Oryza sativa ‘Clearfield 171’, rice), 17.5 g ae/ha
  Mean Visual Injury (%)-21 Days After Application ORYSA ‘Clearfield 171’: 15%
ORYSA (Oryza sativa ‘Clearfield 171’, rice), 35 g ae/ha
  Mean Visual Injury (%)-21 Days After Application ORYSA ‘Clearfield 171’: 35%
ORYSA (Oryza sativa ‘Clearfield 171’, rice), 70 g ae/ha
  Mean Visual Injury (%)-21 Days After Application ORYSA ‘Clearfield 171’: 47%
ORYSA (Oryza sativa ‘Clearfield 171’, rice), dose to kill or control 50 percent
  GR50 ORYSA ‘Clearfield 171’: >70 g ae/ha
ORYSA (Oryza sativa ‘Clearfield 171’, rice), dose to kill or control 90 percent
  GR90 ORYSA ‘Clearfield 171’: >70 g ae/ha
ORYSA (Oryza sativa ‘Wells’, rice), 4.38 g ae/ha
  Mean Visual Injury (%)-21 Days After Application ORYSA ‘Wells’: 0%
ORYSA (Oryza sativa ‘Wells’, rice), 8.75 g ae/ha
  Mean Visual Injury (%)-21 Days After Application ORYSA ‘Wells’: 0%
ORYSA (Oryza sativa ‘Wells’, rice), 17.5 g ae/ha
  Mean Visual Injury (%)-21 Days After Application ORYSA ‘Wells’: 0%
ORYSA (Oryza sativa ‘Wells’, rice), 35 g ae/ha
  Mean Visual Injury (%)-21 Days After Application ORYSA ‘Wells’: 10%
ORYSA (Oryza sativa ‘Wells’, rice), 70 g ae/ha
  Mean Visual Injury (%)-21 Days After Application ORYSA ‘Wells’: 23%
ORYSA (Oryza sativa ‘Wells’, rice), dose to kill or control 50 percent
  GR50 ORYSA ‘Wells’: >70 g ae/ha
ORYSA (Oryza sativa ‘Wells’, rice), dose to kill or control 90 percent
  GR90 ORYSA ‘Wells’: >70 g ae/ha
SCPJU (Scirpus juncoides, Japanese bulrush), 4.38 g ae/ha
  Mean Visual Injury (%)-21 Days After Application SCPJU: 72%
SCPJU (Scirpus juncoides, Japanese bulrush), 8.75 g ae/ha
  Mean Visual Injury (%)-21 Days After Application SCPJU: 100%
SCPJU (Scirpus juncoides, Japanese bulrush), 17.5 g ae/ha
  Mean Visual Injury (%)-21 Days After Application SCPJU: 100%
SCPJU (Scirpus juncoides, Japanese bulrush), 35 g ae/ha
  Mean Visual Injury (%)-21 Days After Application SCPJU: 100%
SCPJU (Scirpus juncoides, Japanese bulrush), 70 g ae/ha
  Mean Visual Injury (%)-21 Days After Application SCPJU: 100%
SCPJU (Scirpus juncoides, Japanese bulrush), dose to kill or control 50 percent
  GR50 SCPJU: <4.38 g ae/ha
SCPJU (Scirpus juncoides, Japanese bulrush), dose to kill or control 90 percent
  GR90 SCPJU: 6.9 g ae/ha
SEBEX (Sesbania exaltata, hemp sesbania), 4.38 g ae/ha
  Mean Visual Injury (%)-21 Days After Application SEBEX: 100%
SEBEX (Sesbania exaltata, hemp sesbania), 8.75 g ae/ha
  Mean Visual Injury (%)-21 Days After Application SEBEX: 100%
SEBEX (Sesbania exaltata, hemp sesbania), 17.5 g ae/ha
  Mean Visual Injury (%)-21 Days After Application SEBEX: 100%
SEBEX (Sesbania exaltata, hemp sesbania), 35 g ae/ha
  Mean Visual Injury (%)-21 Days After Application SEBEX: 100%
SEBEX (Sesbania exaltata, hemp sesbania), 70 g ae/ha
  Mean Visual Injury (%)-21 Days After Application SEBEX: 100%
SEBEX (Sesbania exaltata, hemp sesbania), dose to kill or control 50 percent
  GR50 SEBEX: <4.38 g ae/ha
SEBEX (Sesbania exaltata, hemp sesbania), dose to kill or control 90 percent
  GR90 SEBEX: <4.38 g ae/ha
